These compounds were tested against Cdk4/CyclinD1 (Homo sapiens (Human), UniProt P11802) (assay: Cdk4 kinase inhibition assay with recombinant Cdk4/CyclinD1, Rb substrate, [33P]-ATP filter plate). Details: 25 μM ATP, read-out: Cdk 4 IC50.
Format: biochemical
Procedure: The Cdk4 and Cdk6 inhibitory activity of the compounds is measured with a kinase inhibition assay using recombinant Cdk4/CyclinD1 or Cdk6/CyclinD3 protein complexes. The protein substrate used in the assay is the retinoblastoma protein (Rb). The kinase reactions are carried out in a 96-well filter plate (MSDV N6B50, Millipore). […] The mixture is incubated at room temperature for 1 hour and the proteins precipitated with an equal volume of 20% TCA. The plates are washed with 10% TCA according to the manufacturer's instruction and dried at room temperature. The amount of the phosphorylated Rb is determined with a TopCount (PerkinElmer). The IC50 of a compound is determined by nonlinear regression curve fitting using software program Prism 5 (GraphPad Software).

Cdk4/CyclinD1, sequence (P11802 whole entry): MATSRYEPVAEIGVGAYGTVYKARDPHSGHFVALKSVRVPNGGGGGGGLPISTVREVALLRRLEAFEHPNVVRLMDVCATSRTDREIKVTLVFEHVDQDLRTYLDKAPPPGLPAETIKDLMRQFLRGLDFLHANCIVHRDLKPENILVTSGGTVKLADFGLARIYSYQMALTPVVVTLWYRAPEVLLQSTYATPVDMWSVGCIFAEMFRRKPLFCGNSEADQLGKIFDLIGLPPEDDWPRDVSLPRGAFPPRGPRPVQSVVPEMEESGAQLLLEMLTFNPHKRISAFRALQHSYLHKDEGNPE
Cdk4/CyclinD1, sequence (P24385 whole entry partner): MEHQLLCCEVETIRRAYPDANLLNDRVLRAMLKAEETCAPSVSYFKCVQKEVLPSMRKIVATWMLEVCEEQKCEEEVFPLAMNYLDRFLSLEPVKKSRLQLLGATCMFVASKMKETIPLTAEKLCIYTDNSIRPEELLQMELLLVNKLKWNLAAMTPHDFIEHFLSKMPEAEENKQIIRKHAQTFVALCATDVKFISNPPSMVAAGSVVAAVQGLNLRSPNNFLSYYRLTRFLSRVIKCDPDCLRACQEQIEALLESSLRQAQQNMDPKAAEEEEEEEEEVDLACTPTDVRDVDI

IC50 [nM] | Compound
302 | c1cc2c3cnc(Nc4nsc(N5CCNCC5)n4)nc3n(C3CCCC3)c2cn1 [Example 132]
10000 | c1cc2c3cnc(Nc4nsc(NC5CCNC5)n4)nc3n(C3CCCC3)c2cn1 (centres unmarked) [Example 135]
3 | O=C(CO)N1CCN(c2ccc(Nc3ncc4c5ccncc5n(C5CCCC5)c4n3)nc2)CC1 [Example 151, 2-(4-(6-((9-Cyclopentyl-9H-pyrido[4′,3′:4,5]pyrrolo[2,3-d]pyrimidin-2-yl)amino)-3-pyridinyl)-1-piperazinyl)-2-oxoethanol]
4.1 | Cc1nc(Nc2ncc3c4ccnc(Cl)c4n(C4CCCC4)c3n2)ccc1N1CCNCC1 [Example 155, 8-Chloro-9-cyclopentyl-N-(6-methyl-5-(1-piperazinyl)-2-pyridinyl)-9H-pyrido[4′,3′:4,5]pyrrolo[2,3-d]pyrimidin-2-amine]
5.5 | OCCN1CCN(c2ccc(Nc3ncc4c5ccnc(Cl)c5n(C5CCCC5)c4n3)nc2)CC1 [Example 166, 2-(4-(6-((8-Chloro-9-cyclopentyl-9H-pyrido[4′,3′:4,5]pyrrolo[2,3-d]pyrimidin-2-yl)amino)-3-pyridinyl)-1-piperazinyl)ethanol]
37 | O=C(O)CC1CCN(c2ccc(Nc3ncc4c5ccnc(F)c5n(C5CCCC5)c4n3)nc2)CC1 [Example 175, (1-(6-((9-Cyclopentyl-8-fluoro-9H-pyrido[4′,3′:4,5]pyrrolo[2,3-d]pyrimidin-2-yl)amino)-3-pyridinyl)-4-piperidinyl)acetic acid]
5 | C[C@@H]1CN(c2ccc(Nc3ncc4c5ccnc(F)c5n(C5CCCC5)c4n3)nc2)CCN1 [Example 178, 9-Cyclopentyl-8-fluoro-N-(5-((3R)-3-methyl-1-piperazinyl)-2-pyridinyl)-9H-pyrido[4′,3′:4,5]pyrrolo[2,3-d]pyrimidin-2-amine]
2 | C[C@@H]1CNCCN1c1ccc(Nc2ncc3c4ccnc(F)c4n(C4CCCC4)c3n2)nc1 [Example 180, 9-Cyclopentyl-8-fluoro-N-(5-((2R)-2-methyl-1-piperazinyl)-2-pyridinyl)-9H-pyrido[4′,3′:4,5]pyrrolo[2,3-d]pyrimidin-2-amine]
4.4 | OCCN1CCN(c2ccc(Nc3ncc4c5ccncc5n(C5CCCC5)c4n3)nc2)CC1 [Example 191, 2-(4-(6-((9-Cyclopentyl-9H-pyrido[4′,3′:4,5]pyrrolo[2,3-d]pyrimidin-2-yl)amino)-3-pyridinyl)-1-piperazinyl)ethanol]
68 | CN(C)CC(=O)N1CCN(c2ccc(Nc3ncc4c5ccnc(F)c5n(C5CCCC5)c4n3)nc2)CC1 [Example 193, 9-Cyclopentyl-N-(5-(4-((dimethylamino)acetyl)-1-piperazinyl)-2-pyridinyl)-8-fluoro-9H-pyrido[4′,3′:4,5]pyrrolo[2,3-d]pyrimidin-2-amine]
13 | CN(CCO)C1CCN(c2ccc(Nc3ncc4c5ccnc(F)c5n(C5CCCC5)c4n3)nc2)CC1 [Example 195, 2-((1-(6-((9-Cyclopentyl-8-fluoro-9H-pyrido[4′,3′:4,5]pyrrolo[2,3-d]pyrimidin-2-yl)amino)-3-pyridinyl)-4-piperidinyl)(methyl)amino)ethanol]
4.2 | OC[C@H]1CN(c2ccc(Nc3ncc4c5ccncc5n(C5CCCC5)c4n3)nc2)CCN1 [Example 197, ((2R)-4-(6-((9-Cyclopentyl-9H-pyrido[4′,3′:4,5]pyrrolo[2,3-d]pyrimidin-2-yl)amino)-3-pyridinyl)-2-piperazinyl)methanol]
4.6 | OC[C@@H]1CN(c2ccc(Nc3ncc4c5ccncc5n(C5CCCC5)c4n3)nc2)CCN1 [Example 198, ((2S)-4-(6-((9-cyclopentyl-9H-pyrido[4′,3′:4,5]pyrrolo[2,3-d]pyrimidin-2-yl)amino)-3-pyridinyl)-2-piperazinyl)methanol]
4.5 | OC[C@@H]1CN(c2ccc(Nc3ncc4c5ccnc(F)c5n(C5CCCC5)c4n3)nc2)CCN1 [Example 199, ((2S)-4-(6-((9-cyclopentyl-8-fluoro-9H-pyrido[4′,3′:4,5]pyrrolo[2,3-d]pyrimidin-2-yl)amino)-3-pyridinyl)-2-piperazinyl)methanol]
26 | c1cc2c3cnc(Nc4ccc(N5CCC(N6CCCC6)CC5)cn4)nc3n(C3CCCC3)c2nn1 [Example 201, 9-cyclopentyl-N-(5-(4-(1-pyrrolidinyl)-1-piperidinyl)-2-pyridinyl)-9H-pyrimido[5′,4′:4,5]pyrrolo[2,3-c]pyridazin-7-amine]

The remaining lines, values behind:

Compound | IC50 [nM]
NC1CCN(c2nc(Nc3ncc4c5ccncc5n(C5CCCC5)c4n3)ns2)CC1 [Example 131, 4-Amino-1-(3-((9-cyclopentyl-9H-pyrido[4′,3′:4,5]pyrrolo[2,3-d]pyrimidin-2-yl)amino)-5-1,2,4-thiadiazolyl)-piperidine] | 174
CN1CCN(c2nc(Nc3ncc4c5ccncc5n(C5CCCC5)c4n3)ns2)CC1 [Example 133] | 100
CN(C)C1CCN(c2nc(Nc3ncc4c5ccncc5n(C5CCCC5)c4n3)ns2)CC1 [Example 134] | 190
CN(C)C1CCN(c2ccc(Nc3ncc4c5ccnc(Cl)c5n(C5CCCC5)c4n3)nn2)CC1 [Example 154, 8-Chloro-9-cyclopentyl-N-(6-(4-(dimethylamino)-1-piperidinyl)-3-pyridazinyl)-9H-pyrido[4′,3′:4,5]pyrrolo[2,3-d]pyrimidin-2-amine] | 20
CC(C)n1c2cnccc2c2cnc(Nc3ccc(N4CCNCC4)cn3)nc21 [Example 159, 9-(1-methylethyl)-N-(5-(1-piperazinyl)-2-pyridinyl)-9H-pyrido[4′,3′:4,5]pyrrolo[2,3-d]pyrimidin-2-amine] | 3
OCCN1CCN(c2ccc(Nc3ncc4c5ccnc(F)c5n(C5CCCC5)c4n3)nc2)CC1 [Example 170, 2-(4-(6-((9-Cyclopentyl-8-fluoro-9H-pyrido[4′,3′:4,5]pyrrolo[2,3-d]pyrimidin-2-yl)amino)-3-pyridinyl)-1-piperazinyl)ethanol] | 2.5
Cc1nc(Nc2ncc3c4ccnc(F)c4n(C4CCCC4)c3n2)ccc1N1CCNCC1 [Example 171, 9-Cyclopentyl-8-fluoro-N-(6-methyl-5-(1-piperazinyl)-2-pyridinyl)-9H-pyrido[4′,3′:4,5]pyrrolo[2,3-d]pyrimidin-2-amine] | 19
CC(C)(O)CN1CCN(c2ccc(Nc3ncc4c5ccnc(F)c5n(C5CCCC5)c4n3)nc2)CC1 [Example 172, 1-(4-(6-((9-Cyclopentyl-8-fluoro-9H-pyrido[4′,3′:4,5]pyrrolo[2,3-d]pyrimidin-2-yl)amino)-3-pyridinyl)-1-piperazinyl)-2-methyl-2-propanol] | 5.6
N#CCC1CCN(c2ccc(Nc3ncc4c5ccnc(F)c5n(C5CCCC5)c4n3)nc2)CC1 [Example 173, (1-(6-((9-Cyclopentyl-8-fluoro-9H-pyrido[4′,3′:4,5]pyrrolo[2,3-d]pyrimidin-2-yl)amino)-3-pyridinyl)-4-piperidinyl)acetonitrile] | 56
COC(=O)CC1CCN(c2ccc(Nc3ncc4c5ccnc(F)c5n(C5CCCC5)c4n3)nc2)CC1 [Example 174, Methyl (1-(6-((9-cyclopentyl-8-fluoro-9H-pyrido[4′,3′:4,5]pyrrolo[2,3-d]pyrimidin-2-yl)amino)-3-pyridinyl)-4-piperidinyl)acetate] | 33
NC(=O)CC1CCN(c2ccc(Nc3ncc4c5ccnc(F)c5n(C5CCCC5)c4n3)nc2)CC1 [Example 176, 2-(1-(6-((9-Cyclopentyl-8-fluoro-9H-pyrido[4′,3′:4,5]pyrrolo[2,3-d]pyrimidin-2-yl)amino)-3-pyridinyl)-4-piperidinyl)acetamide] | 930
C[C@H]1CNCCN1c1ccc(Nc2ncc3c4ccnc(F)c4n(C4CCCC4)c3n2)nc1 [Example 177, 9-Cyclopentyl-8-fluoro-N-(5-((2S)-2-methyl-1-piperazinyl)-2-pyridinyl)-9H-pyrido[4′,3′:4,5]pyrrolo[2,3-d]pyrimidin-2-amine] | 5
C[C@H]1CN(c2ccc(Nc3ncc4c5ccnc(F)c5n(C5CCCC5)c4n3)nc2)CCN1 [Example 179, 9-cyclopentyl-8-fluoro-N-(5-((3S)-3-methyl-1-piperazinyl)-2-pyridinyl)-9H-pyrido-[4′,3′:4,5]pyrrolo[2,3-d]pyrimidin-2-amine] | 3.4
CC(=O)OCC(=O)N1CCN(c2ccc(Nc3ncc4c5ccnc(F)c5n(C5CCCC5)c4n3)nc2)CC1 [Example 194, 2-(4-(6-((9-cyclopentyl-8-fluoro-9H-pyrido[4′,3′:4,5]pyrrolo[2,3-d]pyrimidin-2-yl)amino)-3-pyridinyl)-1-piperazinyl)-2-oxoethyl acetate] | 600
OC[C@H]1CN(c2ccc(Nc3ncc4c5ccnc(F)c5n(C5CCCC5)c4n3)nc2)CCN1 [Example 196, ((2R)-4-(6-((9-Cyclopentyl-8-fluoro-9H-pyrido[4′,3′:4,5]pyrrolo[2,3-d]pyrimidin-2-yl)amino)-3-pyridinyl)-2-piperazinyl)methanol] | 2.4
CN(C)C1CCN(c2ccc(Nc3ncc4c5ccncc5n(C5CCC(C)(C)CC5)c4n3)cn2)CC1 [Example 205, N-(6-(4-(dimethylamino)-1-piperidinyl)-3-pyridinyl)-9-(4,4-dimethylcyclohexyl)-9H-pyrido[4′,3′:4,5]pyrrolo[2,3-d]pyrimidin-2-amine] | 2.6
CC1(C)CCC(n2c3cnccc3c3cnc(Nc4ccc(N5CCC(N6CCCC6)CC5)cn4)nc32)CC1 [Example 206, 9-(4,4-dimethylcyclohexyl)-N-(5-(4-(1-pyrrolidinyl)-1-piperidinyl)-2-pyridinyl)-9H-pyrido[4′,3′:4,5]pyrrolo[2,3-d]pyrimidin-2-amine] | 14

— US8841312B2, “Fused pyridine, pyrimidine and triazine compounds as cell cycle inhibitors” (Amgen Inc., priority 2007, dated 2014)
